Literature values as cited in US20060210485A1, “Pharmaceutical formulations” (priority 2003, published 2006).
Structures can show the parent of a compound that is named as a salt.

Settings: solid tablets with a lactose excipient; adducts postulated via the Maillard reaction

chemical stability in presence of lactose: undergoes degradation
Structure (SMILES): CNCCC(Oc1ccc(C(F)(F)F)cc1)c1ccccc1 (stereo not shown) [fluoxetine hydrochloride]
